# Active and inactive are the calls of the source. No rule for the calls is given here.
# Tested on: CCRIS mutagenicity, Ames/micronucleus/aberration tests
# Assay: CCRIS mutagenicity studies
# Settings: Test System: AMES SALMONELLA TYPHIMURIUM
# [1] = Strain/Indicator: TA97, Metabolic Activation: NONE, Method: STANDARD PLATE
# [2] = Strain/Indicator: TA98, Metabolic Activation: NONE, Method: STANDARD PLATE
# [3] = Strain/Indicator: TA100, Metabolic Activation: NONE, Method: STANDARD PLATE
# [4] = Strain/Indicator: TA1535, Metabolic Activation: NONE, Method: STANDARD PLATE
# [5] = Strain/Indicator: TA1537, Metabolic Activation: NONE, Method: STANDARD PLATE
# [6] = Strain/Indicator: TA1538, Metabolic Activation: NONE, Method: STANDARD PLATE
# [7] = Strain/Indicator: TA98, Metabolic Activation: RAT, LIVER, S-9, AROCLOR 1254, Method: STANDARD PLATE
# [8] = Strain/Indicator: TA1535, Metabolic Activation: RAT, LIVER, S-9, AROCLOR 1254, Method: STANDARD PLATE
# [9] = Strain/Indicator: TA1538, Metabolic Activation: RAT, LIVER, S-9, AROCLOR 1254, Method: STANDARD PLATE
compound,measurement,setting,value
CCN(C)C(=O)Oc1ccc2c(c1)C1(C)CCN(C)C1N2C (stereo not given),mutagenic call,[1],inactive; negative
same,mutagenic call,"Strain/Indicator: TA97, Metabolic Activation: S-9, Method: STANDARD PLATE",inactive; negative
same,mutagenic call,[2],inactive; negative
same,mutagenic call,"Strain/Indicator: TA98, Metabolic Activation: S-9, Method: STANDARD PLATE",inactive; negative
same,mutagenic call,[3],inactive; negative
same,mutagenic call,"Strain/Indicator: TA100, Metabolic Activation: S-9, Method: STANDARD PLATE",inactive; negative
same,mutagenic call,"Strain/Indicator: TA104, Metabolic Activation: NONE, Method: STANDARD PLATE",inactive; negative
same,mutagenic call,"Strain/Indicator: TA104, Metabolic Activation: S-9, Method: STANDARD PLATE",inactive; negative
same,mutagenic call,[4],inactive; negative
same,mutagenic call,"Strain/Indicator: TA1535, Metabolic Activation: S-9, Method: STANDARD PLATE",inactive; negative
same,mutagenic call,[5],inactive; negative
same,mutagenic call,"Strain/Indicator: TA1537, Metabolic Activation: S-9, Method: STANDARD PLATE",inactive; negative
same,mutagenic call,[6],inactive; negative
same,mutagenic call,"Strain/Indicator: TA1538, Metabolic Activation: S-9, Method: STANDARD PLATE",inactive; negative
C=CC(=O)NCNC(=O)C=C,mutagenic call,"Strain/Indicator: TA97, Metabolic Activation: HAMSTER, LIVER, S-9, AROCLOR 1254 (10%), Method: PREINCUBATION",inactive; negative
same,mutagenic call,"Strain/Indicator: TA97, Metabolic Activation: NONE, Method: PREINCUBATION",inactive; negative
same,mutagenic call,"Strain/Indicator: TA97, Metabolic Activation: RAT, LIVER, S-9, AROCLOR 1254 (10%), Method: PREINCUBATION",inactive; negative
same,mutagenic call,"Strain/Indicator: TA98, Metabolic Activation: HAMSTER, LIVER, S-9, AROCLOR 1254 (10%), Method: PREINCUBATION",inactive; negative
same,mutagenic call,"Strain/Indicator: TA98, Metabolic Activation: NONE, Method: PREINCUBATION",inactive; negative
same,mutagenic call,"Strain/Indicator: TA98, Metabolic Activation: RAT, LIVER, S-9, AROCLOR 1254 (10%), Method: PREINCUBATION",inactive; negative
same,mutagenic call,"Strain/Indicator: TA100, Metabolic Activation: HAMSTER, LIVER, S-9, AROCLOR 1254 (5, 10 OR 30%), Method: PREINCUBATION",inactive; negative
same,mutagenic call,"Strain/Indicator: TA100, Metabolic Activation: NONE, Method: PREINCUBATION",inactive; negative
same,mutagenic call,"Strain/Indicator: TA100, Metabolic Activation: RAT, LIVER, S-9, AROCLOR 1254 (10%), Method: PREINCUBATION",inactive; negative
same,mutagenic call,"Strain/Indicator: TA1535, Metabolic Activation: HAMSTER, LIVER, S-9, AROCLOR 1254 (10%), Method: PREINCUBATION",active; positive
same,mutagenic call,"Strain/Indicator: TA1535, Metabolic Activation: NONE, Method: PREINCUBATION",inactive; negative
same,mutagenic call,"Strain/Indicator: TA1535, Metabolic Activation: RAT, LIVER, S-9, AROCLOR 1254 (10%), Method: PREINCUBATION",inactive; negative
Cc1ccccc1N=Nc1ccc(N=Nc2c(O)ccc3ccccc23)c(C)c1,mutagenic call,"Strain/Indicator: TA98, Metabolic Activation: HAMSTER, LIVER, S-9, Method: PREINCUBATION (PRIVAL METHOD)",active; positive
same,mutagenic call,[2],inactive; negative
same,mutagenic call,[3],inactive; negative
CC(=O)N(C)c1ccc(N=Nc2ccc(N(C)C)cc2)cc1,mutagenic call,"Strain/Indicator: TA98, Metabolic Activation: RAT, LIVER, S-9, POLYCHLORINATED BIPHENYLS, Method: PREINCUBATION",active; positive
same,mutagenic call,"Strain/Indicator: TA100, Metabolic Activation: RAT, LIVER, S-9, POLYCHLORINATED BIPHENYLS, Method: PREINCUBATION",active; positive
CC(=O)N(C(C)=O)c1ccc(C)c(N=Nc2ccccc2C)c1,mutagenic call,"Strain/Indicator: TA98, Metabolic Activation: NONE, Method: SUSPENSION/PLATE",inactive; negative
same,mutagenic call,"Strain/Indicator: TA98, Metabolic Activation: RAT, LIVER, S-9, PHENOBARBITAL AND 5,6-BENZOFLAVONE, Method: SUSPENSION/PLATE",inactive; negative
same,mutagenic call,"Strain/Indicator: TA100, Metabolic Activation: NONE, Method: SUSPENSION/PLATE",inactive; negative
same,mutagenic call,"Strain/Indicator: TA100, Metabolic Activation: RAT, LIVER, S-9, PHENOBARBITAL AND 5,6-BENZOFLAVONE, Method: SUSPENSION/PLATE",inactive; negative
N=c1ccc2nc3ccc(N)cc3sc-2c1,mutagenic call,[2],active; positive
same,mutagenic call,[7],active; positive
same,mutagenic call,[4],inactive; negative
same,mutagenic call,[8],inactive; negative
same,mutagenic call,[5],inactive; negative
same,mutagenic call,"Strain/Indicator: TA1537, Metabolic Activation: RAT, LIVER, S-9, AROCLOR 1254, Method: STANDARD PLATE",inactive; negative
same,mutagenic call,[6],active; positive
same,mutagenic call,[9],active; positive
COc1cc(O)c2c(=O)c(O)c(-c3ccc(O)c(O)c3)oc2c1,mutagenic call,[1],inactive; negative
same,mutagenic call,"Strain/Indicator: TA97, Metabolic Activation: RAT, LIVER, S-9, AROCLOR 1254, Method: STANDARD PLATE",active; positive
same,mutagenic call,[2],inactive; negative
same,mutagenic call,[7],active; positive
same,mutagenic call,[3],inactive; negative
same,mutagenic call,"Strain/Indicator: TA100, Metabolic Activation: RAT, LIVER, S-9, AROCLOR 1254, Method: STANDARD PLATE",inactive; negative
same,mutagenic call,"Strain/Indicator: TA102, Metabolic Activation: NONE, Method: STANDARD PLATE",inactive; negative
same,mutagenic call,"Strain/Indicator: TA102, Metabolic Activation: RAT, LIVER, S-9, AROCLOR 1254, Method: STANDARD PLATE",inactive; negative
same,mutagenic call,[4],inactive; negative
same,mutagenic call,[8],inactive; negative
same,mutagenic call,[6],inactive; negative
same,mutagenic call,[9],inactive; negative
